Patent USRE37781E1, “Substituted cyclic carbonyls and derivatives thereof useful as retroviral protease inhibitors” (DuPont Pharmaceuticals Company, priority 1991, dated 2002)
pKi: −log10 of the molar value. Where two headings read alike, the source gives them in different places.

How the values were obtained:
[1] = biological target: single-chain tethered dimer of HIV protease (Human immunodeficiency virus 1, UniProt P04585); experiment: biochemical; type: biochemical; design: fused on or other part: A second copy of the same protease unit is joined to the first by a short peptide tether, giving one polypeptide
[2] = system: HIV-1 (RF) in MT-2 cells; experiment: microbe, parasite or virus in culture; type: cell-based
Summary of the method: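 HIV-1 laboratory strains (RF, MN, IIIB) grown in H9 cells in RPMI 1640 with 5% FCS; infections in MT-2 cells. Viral RNA quantified by hybridization with biotinylated gag/pol capture probes on streptavidin plates and alkaline phosphatase-conjugated reporter probes; BH10 gag-pol in vitro transcripts serve as RNA standards.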

[3] = read-out: HPLC K1, Table 2d, HIV protease inhibition, HPLC method
[4] = Human immunodeficiency virus 1, MT2, 48 h, Table 2d, HIV RNA assay, read-out: IC90
[5] = HIV protease inhibition, HPLC method, Table 2d, read-out: HPLC K1
[6] = HIV RNA assay, HIV-1 infected MT-2 cells, Table 2d
[7] = Table 2d, HIV protease inhibition, HPLC method, read-out: HPLC K1
[8] = Table 2d, class symbols, read-out: HPLC K1
[9] = read-out: HPLC K1, Table 2d, class symbols
[10] = Human immunodeficiency virus 1, MT2, 48 h, Table 2d, class symbols, read-out: IC90

CNCc1cccc(CN2C(=O)N(Cc3cccc(CNC)c3)C(Cc3ccccc3)C(O)C(O)C2Cc2ccccc2)c1 (stereo not drawn) [Example 15XC]
pKi [1, 3]: 6.00 to 8.00
IC90 [2, 4]: < 10 µg/mL

NC(=O)c1cccc(CN2C(=O)N(Cc3cccc(C(N)=O)c3)C(Cc3ccc(F)cc3)C(O)C(O)C2Cc2ccc(F)cc2)c1 (stereo not drawn) [20L]
pKi ([1]; Table 2i, read-out: HPLC Ki): > 8.00
IC90 ([2]; Table 2i): +++ (+++=<10 μg/mL)

CN(C)CCCCN1C(=O)N(CCCCN(C)C)C(Cc2ccccc2)C(O)C(O)C1Cc1ccccc1.Cl.Cl (stereo not drawn) [15FH]
pKi [1, 5]: 6.00 to 8.00
IC90 [2, 6]: ++/+ (The ++/+ is used in the cases where an IC90 was determined to be >50 μg/mL)

O=S1(=O)N(Cc2ccc(CO)cc2)C(Cc2ccc(F)cc2)C(O)C(O)C(Cc2ccc(F)cc2)N1Cc1ccc(CO)cc1 (stereo not drawn) [31D]
pKi ([1]; Table 2u (second printing), HPLC method, read-out: K1 (HPLC)): > 8.00
pKi ([1]; Table 2u, HPLC method, read-out: K1 (HPLC)): > 8.00
IC90 ([2]; Table 2u): +++ (+++=<10 μg/mL)
IC90 ([2]; Table 2u (second printing)): +++ (+++=<10 μg/mL)

O=C1N(Cc2ccc3ccccc3c2)C(Cc2ccccc2)C(O)C(O)C(Cc2ccccc2)N1Cc1ccc2[nH]nnc2c1 (stereo not drawn) [15DO]
pKi [1, 7]: > 8.00
IC90 ([2]; Table 2d, HIV RNA assay): +++ (+++=<10 μg/mL)

O=C1N(Cc2ccc3[nH]cnc3c2)C(Cc2ccccc2)C(O)C(O)C(Cc2ccccc2)N1Cc1ccc2[nH]cnc2c1 (stereo not drawn) [15CS]
pKi [1, 7]: 6.00 to 8.00
IC90 ([2]; Table 2d, HIV RNA assay): ++ (++=10 to 100 μg/mL)

O=C1NC(Cc2ccccc2)C(O)C(O)C(Cc2ccccc2)N1CC1CCC(=NO)CC1 (stereo not drawn) [Example 15VC]
pKi [1, 8]: 6.00 to 8.00
IC90 ([2]; Table 2d, class symbols): ++/+ (The ++/+ is used in the cases where an IC90 was determined to be >50 μg/mL)

O=C1NC(Cc2ccccc2)C(O)C(O)C(Cc2ccccc2)N1 (stereo not drawn) [Example 13P]
pKi [1, 8]: < 6.00
IC90 ([2]; Table 2d, class symbols): + (+=>100 μg/mL)

O=C(COCc1ccccc1)c1cccc(CN2C(=O)N(Cc3cccc(C(=O)COCc4ccccc4)c3)C(Cc3ccccc3)C(O)C(O)C2Cc2ccccc2)c1 (stereo not drawn) [Example 15BI]
pKi [1, 3]: > 8.00
IC90 [2, 4]: < 10 µg/mL

CS(=O)(=O)NCCCCCN1C(=O)N(CCCCCNS(C)(=O)=O)C(Cc2ccccc2)C(O)C(O)C1Cc1ccccc1 (stereo not drawn) [15EN]
pKi [1, 7]: 6.00 to 8.00
IC90 ([2]; Table 2d, HIV RNA assay): ++/+ (The ++/+ is used in the cases where an IC90 was determined to be >50 μg/mL)

O=C(NCCCCCN1C(=O)N(CCCCCNC(=O)c2ccccc2F)C(Cc2ccccc2)C(O)C(O)C1Cc1ccccc1)c1ccc(F)cc1 (stereo not drawn) [15FC]
pKi [1, 5]: 6.00 to 8.00
IC90 [2, 6]: ++/+ (The ++/+ is used in the cases where an IC90 was determined to be >50 μg/mL)

Cl.O=C(OCc1ccc(CN2C(=O)N(Cc3ccc(COC(=O)c4ccc(CNCCO)cc4)cc3)[C@H](Cc3ccccc3)[C@H](O)[C@@H](O)[C@H]2Cc2ccccc2)cc1)c1ccc(CNCCO)cc1 [29W]
pKi ([1]; Table 2s, read-out: Ki (HPLC)): 6.00 to 8.00
IC90 ([2]; Table 2s): +++ (+++=<10 μg/mL)

O=S1(=O)N(Cc2cccc(C=NO)c2)C(Cc2ccccc2)C(O)C(O)C(Cc2ccccc2)N1Cc1cccc(C=NO)c1 (stereo not drawn) [23S]
pKi ([1]; Table 2m, read-out: HPLC Ki): > 8.00
IC90 ([2]; Table 2m): +++ (+++=<10 μg/mL)

CC(O)CCCCN1C(=O)N(CCCCC(C)O)C(Cc2ccccc2)C(O)C(O)C1Cc1ccccc1 (stereo not drawn) [Example 15VZ]
pKi [1, 9]: > 8.00
IC90 [2, 10]: < 10 µg/mL

N#Cc1cccc(CN2C(=O)N(Cc3ccc(O)cc3)C(Cc3ccccc3)C(O)C(O)C2Cc2ccccc2)c1 (stereo not drawn) [Example 15AQ]
pKi [1, 3]: > 8.00
IC90 [2, 4]: < 10 µg/mL

O=S1(=O)N(Cc2ccc3ccccc3c2)C(Cc2ccccc2)C(O)C(O)C(Cc2ccccc2)N1Cc1ccc2ccccc2c1 (stereo not drawn) [23H]
pKi ([1]; Table 2m, read-out: HPLC Ki): > 8.00
IC90 ([2]; Table 2m): +++ (+++=<10 μg/mL)

C=CCN1C(=O)N(CC=C)C(Cc2ccccc2)C(O)C(O)C1Cc1ccccc1 (stereo not drawn) [Example 13K]
pKi [1, 8]: > 8.00
IC90 ([2]; Table 2d, class symbols): +++ (+++=<10 μg/mL)

O=C1N(Cc2cccc(C(O)CO)c2)C(Cc2ccccc2)C(O)C(O)C(Cc2ccccc2)N1Cc1cccc(C(O)CO)c1 (stereo not drawn) [11K]
pKi [1, 9]: > 8.00
IC90 [2, 10]: < 10 µg/mL

CCCNC(=NO)c1cccc(CN2C(=O)N(Cc3cccc(C(=NO)NCCC)c3)C(Cc3ccccc3)C(O)C(O)C2Cc2ccccc2)c1 (stereo not drawn) [15BA]
pKi [1, 7]: > 8.00
IC90 ([2]; Table 2d, HIV RNA assay): +++ (+++=<10 μg/mL)

O=C1N(Cc2ccc(CO)cc2)C(Cc2ccccc2)C(O)C(O)C(Cc2ccccc2)N1Cc1cccnc1 (stereo not drawn) [Example 15XE]
pKi [1, 3]: > 8.00
IC90 [2, 4]: < 10 µg/mL

Nc1n[nH]c2ccc(CN3C(=O)N(Cc4ccc5[nH]nc(N)c5c4)C(Cc4ccccc4)C(O)C(O)C3Cc3ccccc3)cc12 (stereo not drawn) [15DF]
pKi [1, 7]: > 8.00
IC90 ([2]; Table 2d, HIV RNA assay): +++ (+++=<10 μg/mL)

O=C1N(Cc2ccc(CO)cc2)C(Cc2ccccc2)C(O)C(O)C(Cc2ccccc2)N1Cc1ccc(CO)cc1 (stereo not drawn) [10Z]
pKi [1, 9]: < 6.00
IC90 ([2]; Table 2d, class symbols): ++ (++=10 to 100 μg/mL)

O=C(NCCCCCN1C(=O)N(CCCCCNC(=O)c2ccccc2)C(Cc2ccccc2)C(O)C(O)C1Cc1ccccc1)c1ccccc1 (stereo not drawn) [15EX]
pKi [1, 7]: 6.00 to 8.00
IC90 ([2]; Table 2d, HIV RNA assay): ++/+ (The ++/+ is used in the cases where an IC90 was determined to be >50 μg/mL)
